Measured values as given in patent US10555987B2, “GHRH agonists for the treatment of ischemic disorders” (UNIVERSITY OF MIAMI, priority 2012, dated 2020).
Several values for one entry are separate records, joined by “and”; a condition that tells them apart may be missing. Equal values may be shown once. Non-standard residues stand in square brackets, D forms with d. Residues, ends and D or L forms follow the SMILES beside them. NMeY = CN[C@@H](Cc1ccc(O)cc1)C(=O)O; Nle = CCCC[C@H](N)C(=O)O; Orn = NCCC[C@H](N)C(=O)O; Abu = CC[C@H](N)C(=O)O; Aoc = NCCCCCCCC(=O)O; Ava = NCCCCC(=O)O

Key:
[1] = test system: GH release; experiment: In vivo endocrine activity, GH release after intravenous administration (Table 8); conditions: rat, i.v. injection
Protocol: In vivo tests on endocrine activity of new GHRH agonists (Intravenous administration). For in vivo tests based on intravenous administration, adult male Sprague-Dawley rats were anesthetized with pentobarbital (6 mg/100/g, b.w.), and GHRH agonists were injected 20 minutes after the injection of pentobarbital. Blood samples were taken from the jugular vein (pretreated level), immediately after hGHRH(1-29)NH2 injection (as a control) or after hGHRH analogs injection. Blood samples were taken from the jugular vein 5, 15 and 30 minutes after the injection. The blood samples were centrifuged, plasma was removed and the GH level was measured by ELISA.

[2] = test system: GH release; experiment: In vivo endocrine activity, GH release after subcutaneous administration (Table 9); conditions: rat; for GH releasing potency relative to JI-38 (=1): subcutaneous (s.c.) injection
Protocol: Subcutaneous Administration. Adult male rats were used and anesthetized with pentobarbital (6 mg/100 g, b.w.), by i.p. injection. […] Blood samples were taken from the jugular vein 5, 15 and/or 30 minutes after the injection. The blood samples were centrifuged, plasma was removed and the GH level was measured byELISA. The results are summarized in terms of potency in Table 9.

[3] = test system: myocardial infarction (Fisher-344 rats); experiment: Serial echocardiography after MI, compared to JI-38 (Example 15, Table 15); format: in vivo, rat; parameters: key to LVEDD: Left Ventricular End Diastolic Diameter / LVESD: Left Ventricular End Systolic Diameter / VD: Ventricular Diastole / VS: Ventricular Systole / EF: Ejection Fraction / FS: Fraction Shortening: ↓: downward arrow denotes lower than JI-38; ↑: upward arrow denotes greater than JI-38; =denotes same as JI-38; ⬇⬇: double arrow denotes greater effect; ⬆⬆: double arrow denotes greater effect; conditions: in comparison to JI-38
Protocol: Echocardiographic measurements were obtained at baseline, 2 days, 1, 2 and 4 weeks. Echocardiographic assessments were performed in anesthetized rats (2% isoflurane inhalation) using a Vevo-770 echocardiogram (Visual Sonics Inc., Toronto, Ontario, Canada) equipped with a 17.5-MHz transducer. Cardiac dimensions: LV end diastolic (LVEDD), end systolic (LVESD) diameters and fractional shortening (FS) were recorded from M-mode images using averaged measurements from 3 to 5 consecutive cardiac cycles according to the American Society of Echocardiography. Ejection fraction (EF) was calculated from bi-dimensional long-axis parasternal views taken through the infarcted area. All images were analyzed using Vevo 770 3.0.0 software (Visual Sonics Inc., Toronto, Ontario, Canada).
(§1) Myocardial infarction (MI) was induced by permanent ligation of the left coronary artery in female 6-month-old Fisher-344 rats. Following experimental myocardial infarction (MI), rats were randomly assigned to receive either placebo, JI-38, or one of the following new analogs of GHRH: MR-30 l(P-21301), MR-303(P-21303), MR-356(P-20356), MR-502(25502), MR-350(P-20350), MR-36 l(P-20361), MR-367(P-20367), MR-403(P-27403), MR-404(P-27404), and MR-409(P-27409) (10 rats per each group). The GHRH peptide agonists were adminsistered starting 2 hours post-surgery, 1 week, 2 week, and 4 week intervals. All treatment was given subcutaneously twice daily. Cardiac performance was assessed by serial echocardiography and hemodynamic analysis derived from pressure-volume loops as described before.
The echocardiographic experiments are shown in FIGS. 10-15 and the results are summarized in Table 15 (results were expressed in comparison to JI-38; downward arrow denotes lower than JI-38; upward arrow denotes greater than JI-38; =denotes same as JI-38; and double arrow denotes greater effect).

[4] = test system: myocardial infarction (Fisher-344 rats); experiment: Hemodynamic analysis (pressure-volume loops), body and heart weight after MI, compared to JI-38 (Example 15, Table 16); format: in vivo, rat; parameters: key to ESP (End-Systolic Pressure) / EDP (End-Diastolic Pressure) / ESV (End-Systolic Volume) / PRSW (Preload Recruitable Stroke Work) / Ees (End-systolic Elastance) / dP/dt max (peak rate of the pressure rise) / dP/dt max_EDV / dP/dt min / TAU (relaxation time constant calculated by Weiss method) / SV (Stroke Volume) / CO (Cardiac Output) / SW (Stroke Work) / EF / Ea/Ees / Ea (arterial Elastance): ↓: downward arrow denotes lower than JI-38; ↑: upward arrow denotes greater than JI-38; =denotes same as JI-38; ⬇⬇: double arrow denotes greater effect; ⬆⬆: double arrow denotes greater effect; conditions: rat MI model, s.c. twice daily; pressure-volume loops; expressed in comparison to JI-38
Protocol: Rats were anesthetized by intramuscular injection of a mixture of ketamine (100 mg/kg), xylazine (20 mg/kg) and acepromazine (10 mg/kg). A 2-F micromanometer tipped catheter (SPR-838, Millar Instruments, Houston, Tex.) was inserted into the right carotid artery and advanced retrograde into the left ventricle. Measurements were calibrated by injecting a hypertonic saline (15%) bolus to determine extra-ventricular conductance; relative volume units were converted to actual volume using the cuvette calibration method. All analyses were performed using PVAN 3.0 software (Millar Instruments, Houston, Tex.).
as §1
The hemodynamic studies are shown in FIGS. 16-33 and the results are summarized in Table 16 (results were expressed in comparison to JI-38; downward arrow denotes lower than JI-38; upward arrow denotes greater than JI-38; =denotes same as JI-38; and double arrow denotes greater effect).

[5] = target: T1, GHRH receptor (Homo sapiens, UniProt Q02643); experiment: GHRH receptor binding, competition with 125I-labeled JV-1-42, human pituitary membrane homogenates (Table 7); parameters: Normal human pituitaries were purchased from the National Hormone and Peptide Program; tissue National Hormone and Peptide Program (A.F. Parlow, Harbor-UCLA Medical Center, Torrance, Calif.); host or cells: normal human pituitary, membrane fraction; conditions: JI-38 = 1, Table 7
T1 sequence (Q02643 23-423): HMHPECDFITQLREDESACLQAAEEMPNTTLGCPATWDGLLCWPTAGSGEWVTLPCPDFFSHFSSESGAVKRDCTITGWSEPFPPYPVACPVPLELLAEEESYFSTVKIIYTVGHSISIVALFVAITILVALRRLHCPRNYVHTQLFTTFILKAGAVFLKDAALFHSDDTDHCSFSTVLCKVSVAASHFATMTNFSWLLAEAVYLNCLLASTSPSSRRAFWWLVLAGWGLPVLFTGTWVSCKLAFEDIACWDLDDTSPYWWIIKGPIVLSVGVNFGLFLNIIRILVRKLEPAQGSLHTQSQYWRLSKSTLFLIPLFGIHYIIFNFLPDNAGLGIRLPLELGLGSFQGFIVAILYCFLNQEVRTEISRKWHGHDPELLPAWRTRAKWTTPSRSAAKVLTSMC
Text: Normal human pituitaries were purchased from the National Hormone and Peptide Program (A.F. Parlow, Los Angeles, County Harbor-UCLA Medical Center, Torrance, Calif.).

[6] = test system: GH release; experiment: GH releasing potency in vivo, subcutaneous administration (Example 14, Table 12); parameters: species or system rat; conditions: s.c.
How it was run: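 Potency is expressed relative to GHRH(1-29)NH2 and JI-38 (each = 1), via equivalent GHRH(1-29)NH2 dose read from a standard curve. Peptides in 5% mannitol given i.v. or s.c. to anaesthetised male Sprague-Dawley rats (200-250 g); serum GH measured by ELISA at selected times.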

[7] = target: T1, GHRH receptor; experiment: Receptor binding in vitro, 125I-labeled [His1,Nle27]-hGHRH(1-32)NH2, membrane receptors of human anterior pituitary cells (Table 14)
Text: Normal human pituitary was purchased from the National Hormone and Peptide Program (UCLA Medical Center, Torrance, Calif.).

Structure (SMILES): CCCC[C@H](NC(=O)[C@@H](NC(=O)[C@H](CC(=O)O)NC(=O)[C@H](CCC(N)=O)NC(=O)[C@H](CC(C)C)NC(=O)[C@H](CC(C)C)NC(=O)[C@H](CCCN)NC(=O)[C@H](CCCNC(=N)N)NC(=O)[C@H](C)NC(=O)[C@H](CO)NC(=O)[C@H](CC(C)C)NC(=O)[C@H](CCC(N)=O)NC(=O)[C@H](CC)NC(=O)[C@H](CC(C)C)NC(=O)[C@@H](NC(=O)[C@H](CCCN)NC(=O)[C@H](CCCNC(=N)N)NC(=O)[C@H](Cc1ccc(O)cc1)NC(=O)[C@H](CO)NC(=O)[C@H](CC(N)=O)NC(=O)[C@@H](NC(=O)[C@H](Cc1ccccc1)NC(=O)[C@@H](NC(=O)[C@H](C)NC(=O)[C@H](CC(=O)O)NC(=O)[C@@H](C)NC(=O)[C@H](Cc1ccc(O)cc1)NC)[C@@H](C)CC)[C@@H](C)O)C(C)C)[C@@H](C)CC)C(=O)N[C@@H](CC(=O)O)C(=O)N[C@@H](CCCNC(=N)N)C(=O)NCCCCCCCC(N)=O [Peptide P-21303, [N—Me-Tyr^1, D-Ala^2, Orn^12, Abu^15, Orn^21, Nle^27, Asp^28, Amc^30]hGHRH(1-30)NH2] (H-[NMeY][dA]DAIFTNSYR[Orn]VL[Abu]QLSAR[Orn]LLQDI[Nle]DR[Aoc]-NH2)
- GH releasing potency in vivo relative to JI-38 (=1) ([1]; 5 min after): 0.79
- GH releasing potency in vivo relative to JI-38 (=1) ([1]; 15 min after): 1.14
- GH releasing potency in vivo relative to JI-38 (=1) ([1]; 30 min after): 0.81
- GH releasing potency relative to JI-38 (=1) ([2]; 15 min after): 0.95
- GH releasing potency relative to JI-38 (=1) ([2]; 30 min after): 1.45
- EF: Ejection Fraction [3]: ↓
- FS: Fraction Shortening [3]: =
- LVEDD: Left Ventricular End Diastolic Diameter [3]: =
- LVESD: Left Ventricular End Systolic Diameter [3]: =
- VD: Ventricular Diastole [3]: ↑
- VS: Ventricular Systole [3]: ↑
- CO (Cardiac Output) [4]: =
- EDP (End-Diastolic Pressure) [4]: ↑
- EF [4]: ↑
- ESP (End-Systolic Pressure) [4]: ↓
- ESV (End-Systolic Volume) [4]: =
- Ea (arterial Elastance) [4]: =
- Ea/Ees [4]: =
- Ees (End-systolic Elastance) [4]: ↓
- PRSW (Preload Recruitable Stroke Work) [4]: ↓
- SV (Stroke Volume) [4]: =
- SW (Stroke Work) [4]: =
- TAU (relaxation time constant calculated by Weiss method) [4]: =
- dP/dt max (peak rate of the pressure rise) [4]: ↓
- dP/dt max_EDV [4]: ↓
- dP/dt min [4]: =
- Relative affinity (Binding potency) vs JI-38 [5]: 2.32

Structure (SMILES): CCCC[C@H](NC(=O)[C@@H](NC(=O)[C@H](CC(=O)O)NC(=O)[C@H](CCC(N)=O)NC(=O)[C@H](CC(C)C)NC(=O)[C@H](CC(C)C)NC(=O)[C@H](CCCN)NC(=O)[C@H](CCCNC(=N)N)NC(=O)[C@H](C)NC(=O)[C@H](CO)NC(=O)[C@H](CC(C)C)NC(=O)[C@H](CCC(N)=O)NC(=O)[C@H](CC)NC(=O)[C@H](CC(C)C)NC(=O)[C@@H](NC(=O)[C@H](CCCN)NC(=O)[C@H](CCCNC(=N)N)NC(=O)[C@H](Cc1ccc(O)cc1)NC(=O)[C@H](CO)NC(=O)[C@H](CCC(N)=O)NC(=O)[C@@H](NC(=O)[C@H](Cc1ccccc1)NC(=O)[C@@H](NC(=O)[C@H](C)NC(=O)[C@H](CC(=O)O)NC(=O)[C@@H](C)NC(=O)[C@H](Cc1ccc(O)cc1)NC)[C@@H](C)CC)[C@@H](C)O)C(C)C)[C@@H](C)CC)C(=O)N[C@@H](CC(=O)O)C(=O)N[C@@H](CCCNC(=N)N)C(=O)NCCCCC(N)=O [Peptide P-22326, [N—Me-Tyr^1, D-Ala^2, Gln^8, Orn^12, Abu^15, Orn^21, Nle^27, Asp^28, Apa^30] hGHRH(1-30)NH2] (H-[NMeY][dA]DAIFTQSYR[Orn]VL[Abu]QLSAR[Orn]LLQDI[Nle]DR[Ava]-NH2)
- GH releasing potency in vivo relative to JI-38 (=1) ([1]; 15 min after): 0.28
- GH releasing potency in vivo relative to JI-38 (=1) ([1]; 30 min after): 0.94
- Stimulation of growth hormone levels after subcutaneous administration (in words) ([2]; s.c.): stimulated greater growth hormone levels than hGHRH or JI-38
- GH releasing potency relative to JI-38 (=1) ([2]; 15 min after): 1.76
- GH releasing potency relative to JI-38 (=1) ([2]; 30 min after): 2.31
- Serum GH level at selected time after injection (ng/ml), 0 min ([6]; male rats, dose 3 μg/kg, 0 min, mean ± SEM): 43.7 ± 6.4 ng/mL
- Serum GH level at selected time after injection (ng/ml), 15 min ([6]; male rats, dose 3 μg/kg, 15 min, mean ± SEM): 309.2 ± 33.5 ng/mL
- Serum GH level at selected time after injection (ng/ml), 30 min ([6]; male rats, dose 3 μg/kg, 30 min, mean ± SEM): 225.9 ± 19.8 ng/mL
- GH-releasing potency after s.c. administration (in words) [6]: significantly higher potencies at 30 minutes than at 15 minutes
- Relative potency compared to GHRH(1-29), 15 min ([6]; 15 min): 92.7
- Relative potency compared to JI-38, 15 min ([6]; 15 min, listed as MR-326): 1.5 and 1.47
- Relative potency compared to GHRH(1-29), 30 min ([6]; 30 min): 303.4
- Relative potency compared to JI-38, 30 min ([6]; 30 min, listed as MR-326): 2.7 and 2.71
- Relative affinity (Binding potency) compared to JI-38 ([7]; JI-38 = 1): 2.80
- Relative affinity (Binding potency) compared to hGHRH(1-29) ([7]; hGHRH(1-29)NH2 = 1): 7.81
- Relative affinity (Binding potency) vs JI-38 [5]: 6.12
